Assay results published in patent US10787423B2, “Piperazine and piperidine derivatives, their synthesis and use thereof in inhibiting VDAC oligomerization, apoptosis and mitochondria dysfunction” (THE NATIONAL INSTITUTE FOR BIOTECHNOLOGY IN THE NEGEV LTD., priority 2015, dated 2020).
Like-named read-outs stand apart in the source and are kept apart here.

What was measured:
SHSY5Y cells = test: 6-hydroxydopamine-induced cell toxicity, XTT cell viability; format: cell-based; conditions: for IC50: Homo sapiens, SH-SY5Y, 24 h, read-out: IC50 (cell viability protection)
Protocol: SHSY5Y (obtained from ATCC) were grown at 37° C. under an atmosphere of 95% air and 5% CO2 in DMEM medium supplemented with 10% fetal bovine serum, 2 mM L-glutamine, 1000 U/ml penicillin, and 1 mg/ml streptomycin until 60-70% of confluence. Further, the cells were incubated with increasing concentrations of 6-hydroxydopamine. After 24 hours, and cells viability was assayed using the XTT (2,3-bis-(2-methoxy-4-nitro-5-sulfophenyl)-2H-tetrazolium-5-carboxanilide) method, according to the supplier instructions. […] The 50% decrease in cell survival was obtained at about 50 μM of 6-hydroxydopamine.
Cell viability as assayed following 24 h incubation with different concentrations of 6-hydroxydopamine in the absence (closed squares (▪)) or in the presence of VBIT-12 (15 μM, closed circles (●)) is shown.
Similarly, cells that were incubated with increasing concentrations of VBIT-12 in presence of either 30 or 50 μM of 6-hydroxydopamine that decreased cell viability by […], respectively, remained viable after 24 hours of the incubation. Cells viability is charted in FIG. 24C versus the concentrations of VBIT-12. Closed squares (▪) indicate control group without 6-hydroxydopamine, open circles (◯) indicates cells' viability when exposed to 30 μM of the 6-hydroxydopamine, and closed circles (●) indicate cells viability at 50 μM of the 6-hydroxydopamine.

VDAC1 = VDAC1 (Homo sapiens, UniProt P21796); test: Selenite-induced VDAC1 oligomerization in HeLa cells, EGS cross-linking; format: cell-based; design: endogenous in cells; host or cells: HeLa; conditions: 22 h with selenite 8 μM and increasing concentrations
Chain of VDAC1 (P21796 whole entry): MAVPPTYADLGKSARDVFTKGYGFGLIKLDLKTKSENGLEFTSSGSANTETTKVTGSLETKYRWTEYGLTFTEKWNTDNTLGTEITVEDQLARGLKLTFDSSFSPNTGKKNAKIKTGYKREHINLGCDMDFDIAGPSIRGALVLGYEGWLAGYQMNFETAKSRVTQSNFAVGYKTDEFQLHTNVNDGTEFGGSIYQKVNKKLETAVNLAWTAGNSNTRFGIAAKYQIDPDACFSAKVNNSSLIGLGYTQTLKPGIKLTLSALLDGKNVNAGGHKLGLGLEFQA
Protocol: Appropriate test cells (2.5-3 mg/ml) in PBS, were harvested after the treatment and incubated with the cross-linking reagent EGS at a ratio of 100-300 μM for sample of 2-3 mg protein/ml concentration (pH 8.3) for 15 minutes. Protein concentration was determined according to Lowry assay. Samples (60-80 μg protein) were subjected to SDS-PAGE by a standard technique and immunoblotting was performed using anti-VDAC1 antibodies. Gels were electro-transferred onto nitrocellulose membranes for immuno-staining. The membranes were incubated with a blocking solution containing 5% non-fat dry milk and 0.1% Tween-20 in Tris-buffered saline, followed by incubation with monoclonal anti-VDAC1, anti-Cytochrome c, anti-AIF or anti-actin antibodies. Membranes were then incubated with HRP-conjugated anti-mouse or anti-rabbit IgG (1:10,000), serving as secondary antibodies. Antibody labeling was detected by chemiluminescence. […] Quantitative analysis of immuno-reactive VDAC1 dimer, trimer and multimer bands was performed using FUSION-FX (Vilber Lourmat, France).
Cells (2.5 mg/ml) were washed with and resuspended in PBS, pH 8.3 and incubated with membrane-permeable cross-linker EGS (250 μM) at 30° C. for 15 min and then subjected to SDS-PAGE and immunoblotting using anti-VDAC1 antibodies. […] Cell death was analyzed using propidium iodide (PI) staining and flow cytometry.

dopaminergic neurons = test: MPTP-induced Parkinson-like disease mouse model, brain immunofluorescence; format: in vivo, C57BL/6N male mice; conditions: MPTP 20 mg/kg IP 5 days; 20 mg/kg in drinking water from day 3
Protocol: The Experimental protocols were approved by the Institutional Animal Care and Use Committee. Briefly, C57BL/6N male mice 3-months old were injected IP 3 times/week with vehicle (saline) as control. Parkinsonism was induced by repetitive intraperitoneal injection of 20 mg/kg 1-methyl-4-phenyl-1,2,3,6-tetrahydropyridine hydrochloride (MPTP), Sigma, Israel) in saline, for 5 consecutive days. Group 3 was injected with MPTP and at day 3 of MPTP treatment it was subjected to compound of Formula 3 (VBIT-12) 20 mg/kg in drinking water.
Brains from the scarified mice were analyzed for the pathophysiological features of PD-like mouse models as induced by MPTP and the effect of VBIT-12 on the dopaminergic neurons (DN) was analyzed. Fixed brains were subjected to coronal sections (5 μm thickness) including the Substantia nigra pars compacta (SNc), ventral tegmental area (VTA) and Substantia nigra pars reticular (SNR) (see FIG. 25B) and used for immunofluorescence (IF) (FIG. 25C). Evaluation of dopaminergic neuron degeneration was monitored using anti-Tyrosine hydroxylase (TH) antibodies, which is expressed in dopaminergic neurons.
This decrease was prevented by VBIT-12, as reflected by the increase of the number of cells stained with TH relative to the MPTP-treated group not subjected to VBIT-12.
Sections were also subjected for staining with anti-VDAC1 antibodies (FIG. 25D). […]

[1] = system: 5XFAD transgenic mice with AD-like disease; test: Radial-arm water maze learning and memory task in 5XFAD transgenic mice; format: in vivo, mouse; conditions: 5XFAD mice, 20 mg/kg in drinking water for 4 months, tested at six months of age
Protocol: Animals at age two months were assigned to three groups: transgenic treated (TG-T, 8 males and 3 females), transgenic vehicle (TG-V, 8 males and 3 females), and wild type (WT, 10 males and 8 females).
Two-months old 5XFAD mice were provided with 0.9% of DMSO solution or VBIT-4 solution (20 mg/kg in 0.9% DMSO) in drinking water replaced with fresh solution three times a week in the first month and thereafter twice a week for additional 3 months.
When the mice reached the age of six months, a two-day radial-arm water maze (RAWM) trial was performed as described previously (Jennifer Alamed, et al, Nature Protocols 1, (2006) 1671-1679) to test the effect of VBIT-4 on learning and memory task. The RAWM containing six swim paths (arms) was used. The arms were extending out from an open central area with an escape platform located at the end of one arm (the goal arm). The goal arm location remained constant for a given mouse. On day 1, mice were trained for 15 trials (spaced over 3 h), with trials alternating between visible and hidden platforms. On day 2, mice were trained for 15 trials with the hidden platform.
Entry into an incorrect arm was scored as an error, and the times spent by the animal to find the platform were recorded. […] To examine the source of differences the post-hoc test of Bonferroni-type was used. […]

purified VDAC1 = target: T1, purified VDAC1 (Rattus norvegicus, UniProt Q9Z2L0); test: Microscale thermophoresis (MST) binding to purified VDAC1; conditions: MST, purified VDAC1 133 nM, 20 min incubation; means±SD (n=3); read-out: VDAC1 binding affinities
T1 construct: rat liver mitochondria (5 mg/ml) in 10 mM Tris-HCl, pH 7.2, were incubated with 2% LDAO; from tissue; host or cells: rat liver mitochondria
T1 sequence (Q9Z2L0 whole entry): as the sequence (P21796 whole entry) above, with T55N, M129V, A160S, I227V counted along it
Protocol: To obtain quantitative parameters of this interaction and derive a dissociation constant, e.g. a microscale thermophoresis (MST) interaction assay may be performed. In this manner, dissociation values are derived from the curves showing the affinity of the compounds of the invention to VDAC.
Briefly, rat liver mitochondria (5 mg/ml) in 10 mM Tris-HCl, pH 7.2, were incubated with 2% LDAO at 0° C. for 20 min, followed by centrifugation (30 min, 14,000 g) and the obtained supernatant was loaded onto a dry celite:hydroxyapatite (2:1) column. VDAC1 was eluted with a solution containing 2% LDAO, 10 mM Tris-HCl, pH 7.2, 50 mM NaCl, and 20 to 22 mM NaH2PO4, with VDAC1 detection by Coomassie blue staining. The VDAC1-containing fractions were dialyzed against 10 mM Tris-HCl, pH 7.2, and subjected to a second chromatography step on a carboxymethyl-cellulose (CMC) column from which VDAC1 was eluted with a solution containing 10 mM Tris-HCl, pH 7.2, 0.1% LDAO and 500 mM NaCl, detected as above. The VDAC1-containing fractions were collected and used for VDAC1 channel conductance and MST assays.
MST analysis was performed using a NanoTemper Monolith NT.115 apparatus. […]
Purified VDAC1 (133 nM), labeled using the NanoTemper fluorescent protein-labeling Kit BLUE (Nano Temper technologies, Munich, Germany), according to the manufactory instructions, was incubated with increasing concentrations of the following tested compounds: compound of Formula 10 (AKOS-022), compound of Formula 2 (VBIT-3), or racemic compound of Formula 1 (VBIT-4). After 20 min of incubation, the samples (3-5 μL) were loaded into MST-grade glass capillaries (Monolith NT Capillaries), and the thermophoresis process was measured using the Monolith-NT115 apparatus.
Fmax and Fmin represent the maximal and minimal fluorescence, respectively and F the fluorescence measured in the presence of the tested compound.
VDAC1 binding affinities of tested compounds were calculated from the MST measurements.

| selenite-induced VDAC1 oligomerization (VDAC1) | Kd (purified VDAC1) [µM] | Structure (SMILES) | protection against 6-hydroxydopamine-induced decreased cell viability (SHSY5Y cells; 15 μM VBIT-12, 24 h, different 6-hydroxydopamine concentrations) | IC50 (SHSY5Y cells; 30 μM 6-hydroxydopamine) [µM] | IC50 (SHSY5Y cells; 50 μM 6-hydroxydopamine) [µM] | VDAC1 levels in dopaminergic neurons (anti-VDAC1 staining) (dopaminergic neurons) | dopaminergic neurons in SNc (TH staining) (dopaminergic neurons) | RAWM number of errors [1] | RAWM total time spent [1] |
| --- | --- | --- | --- | --- | --- | --- | --- | --- | --- |
| Inhibited | – | O=C(O)CNC(=O)C1(Nc2ccccc2)CCN(Cc2cccc3ccccc23)CC1 [Formula 3] | protected against the reduction of cell survival by all 6-hydroxydopamine concentration used | ~1 | ~2 | decreased | protected against neuronal loss | – | – |
| – | 17 ± 5.3 | O=C(CC(CO)N1CCN(c2ccc(OC(F)(F)F)cc2)CC1)Nc1ccc(Cl)cc1 (racemic) [Formula 1, N-(4-chlorophenyl)-4-hydroxy-3-(4-(4-(trifluoromethoxy)phenyl)-piperazin-1-yl)butanamide] | – | – | – | – | – | better than untreated TG | better than untreated TG |
